Measurements published in patent publication US20080194406A1, “METHOD FOR TREATING AGRICULTURAL CROPS USING MATERIALS ASSOCIATED WITH TUBULAR CARRIERS” (NaturalNano, Inc., priority 2005, published 2008).

Assay: release profiles of drugs from halloysite tubule compositions, relative to total release amounts (FIGS. 4 and 5)
Format: physicochemical
Conditions: release from mineral-derived tubule composition relative to total release amount; FIG. 4 (Tetracycline), FIG. 5 (Khellin)
Description: FIGS. 4 and 5, respectively illustrate, relative to total release amounts, the release profiles for two drugs (Tetracycline and Khellin), wherein prolonged application periods are desired.

COc1c2occc2c(OC)c2c(=O)cc(C)oc12 [Khellin]
release profile extends for: several days
